Patent publication US5605929A, “Methods and compositions for inhibiting 5α-reductase activity” (priority 1995, dated 1997)
“Also recorded” adds a separate entry of the source.

Columns and labels:
5α-reductase = 5α-reductase inhibition stated in words; type: biochemical
rat pituitary cultures = details: cited from earlier work
prostate = details: dog, in vivo; cited from earlier work
5α-reductase / prostate = details: cited from earlier work
[1] = molecular target: T1, 5α-Reductase of Rat Liver Microsomes (Rattus norvegicus, UniProt P24008); test: biochemical
T1 sequence (P24008 1-259): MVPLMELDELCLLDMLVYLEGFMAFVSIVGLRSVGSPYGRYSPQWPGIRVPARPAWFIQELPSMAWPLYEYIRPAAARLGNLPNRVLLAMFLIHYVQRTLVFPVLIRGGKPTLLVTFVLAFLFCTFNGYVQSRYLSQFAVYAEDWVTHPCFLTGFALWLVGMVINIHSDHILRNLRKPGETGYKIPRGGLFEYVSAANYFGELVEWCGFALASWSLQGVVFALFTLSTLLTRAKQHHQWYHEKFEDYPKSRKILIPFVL
Procedure: Briefly, the binding assay solution, in a final volume of 0.15 ml, contained microsomes (2-20 μg of protein), 0.08 μCi of [^3 H]4-MA, 0.1 mM-NADPH, 1 mM-dithiothreitol and 50 mM-potassium phosphate, pH 7.0, with or without the indicated amount of a lipid or an inhibitor preparation. Lipids were dissolved in ethanol and added in 1-5 μl volumes. Control tubes received the same amount of ethanol. After incubation at 0° C. for 1 h, the [^3 H]4-MA bound to microsomes was determined by collecting microsomes on a Whatman GF/1F glass fibre filter and washing with 10 ml of 20 mM-potassium phosphate, pH 7.0, containing 0.01% CHAPS to remove unbound [^3 H]4-MA.
Microsomes were prepared at 4° C. from a buffered 0.32M-sucrose homogenate of human liver and from the livers of adult Sprague-Dawley female rats by differential centrifugation as described previously (Liang et al., 1990), and were used in the assay of 5α-reductase activity. In some experiments, microsomes were solubilized with 0.1% polyoxyethylene ether W-1 as described previously (Liang et al., 1990), except for the substitution of polyoxyethylene ether W-1 for Lubrol-WX.

scalp baldness = details: cited from earlier work; for baldness: topical to scalp
[2] = molecular target: T2, human 5α-reductase isozyme type 1 (Homo sapiens, UniProt P18405); test: 4-[14C]testosterone reduction, human type 1 isozyme; type: biochemical
T2 construct: expressed in transfected cells; host or cells: Rat-1A cells infected with pMV7 retrovirus; microsomes of these cells
T2 sequence (P18405 1-259): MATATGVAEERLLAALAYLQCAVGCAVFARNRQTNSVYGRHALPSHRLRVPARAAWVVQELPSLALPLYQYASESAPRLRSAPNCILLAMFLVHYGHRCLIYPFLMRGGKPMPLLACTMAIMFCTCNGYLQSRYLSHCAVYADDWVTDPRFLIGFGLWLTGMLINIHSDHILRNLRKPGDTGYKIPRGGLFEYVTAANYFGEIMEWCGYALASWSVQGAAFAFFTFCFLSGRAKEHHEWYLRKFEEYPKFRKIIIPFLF
Text: (§1) The cDNAs for the human type 1 and 2 5α-reductases were isolated from human prostate λZAP II™ cDNA libraries using the published sequence of the 5α-reductases, PCR™ and standard library screening techniques (Sambrook et al., 1989). The type 1 and 2 cDNAs correspond to nucleotides 31-870 and 28-829, respectively, of the published sequences for these 5α-reductases (Anderson and Russell, 1990; Anderson et al., 1991). The type 1 and 2 cDNAs were subcloned into the retroviral expression vector pMV7 (Kirschmeier et al., 1988) and high titer stocks of virus containing the type 1 and 2 cDNAs were generated using the packaging cells BOSC 23 293 (Kirschmeier et al., 1988). Rat.-1A cells (Pear et al., 1993) were infected with virus (Topp, 1981) and cells containing integrated retrovirus were selected for G418-SO4 resistance, (Brown and Scott, 1987).
(§2) Microsomes were prepared as described previously (Liang and Liao, 1992) from the liver of adult Sprague-Dawley female rats or Rat-1A cells expressing a specific type of human 5α-reductase. […] The data presented was based on the rate of reaction.
(§3) The reaction was started by the addition of 25 μl of microsomes (25 μg protein). The mixture was incubated at 37° for 30-60 min and stopped by addition of 0.5 ml of ethyl acetate and mixing for 1 min. The organic solvent extract was removed under vacuum.

[3] = molecular target: T2, human 5α-reductase isozyme type 1; test: [3H]4-MA binding, human type 1 isozyme expressed in Rat-1A cells; details: read-out: % Inhibition of [^3 H]4-MA binding
Text: as §1, §2
(§4) [^3 H]4-MA binding assay were described in detail previously (Liang and Liao, 1992; Liang et al., 1983). […] The reaction was started by the addition of 25 μl of microsomes (25 μg protein). After 30-60 min incubation at 0° C., the [^3 H]4-MA bound to microsomes was collected on a Whatman GF/F glass fiber, washed and radioactivity determined (Liang and Liao, 1992).

[4] = system: androgen-dependent organs; type: in vivo, rat
Procedure: The control rats were injected with 0.3 ml of 30% ethanol.

[5] = molecular target: T3, human 5α-reductase isozyme type 2 (Homo sapiens, UniProt P31213); test: 4-[14C]testosterone reduction, human type 2 isozyme; type: biochemical
T3 construct: expressed in transfected cells; host or cells: Rat-1A cells infected with pMV7 retrovirus; microsomes of these cells
T3 sequence (P31213 1-254): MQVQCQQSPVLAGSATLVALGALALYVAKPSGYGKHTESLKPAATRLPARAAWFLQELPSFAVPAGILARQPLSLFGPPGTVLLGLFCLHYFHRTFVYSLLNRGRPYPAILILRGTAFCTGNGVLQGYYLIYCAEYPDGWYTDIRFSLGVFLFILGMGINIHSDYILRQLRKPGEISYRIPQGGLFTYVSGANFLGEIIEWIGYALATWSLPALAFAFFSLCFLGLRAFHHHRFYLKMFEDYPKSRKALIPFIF
Text: as §1, §2, §3

type 1 5α-reductase [6] = type: biochemical
Procedure: as §4, §3

[7] = NADPH oxidation in presence of microsomes
[8] = system: prostate and preputial organ; test: Catechins ip 7 days, large rats; type: in vivo, rat; details: 15 mg ip/day, 7 days
Procedure: Male Sprague Dawley rats, 172±20 g body weight, were used. Each group had 5 rats. […] The control rats received 0.3 ml of 30% ethanol.

[9] = molecular target: T3, human 5α-reductase isozyme type 2; test: [3H]4-MA binding, human type 2 isozyme expressed in Rat-1A cells
Text: as §1, §2, §4

[10] = molecular target: T1, 5α-Reductase of Rat Liver Microsomes; test: [3H]4-MA binding assay, rat liver microsomes (tea catechins)
In short: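 Microsomes from adult female Sprague-Dawley rat liver or Rat-1A cells expressing human 5α-reductase, 25 μg protein per reaction. Incubation 30–60 min at 0 °C; microsome-bound [3H]4-MA collected on glass-fibre filters and counted. Duplicate or triplicate determinations, values based on reaction rate.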

Soybean lipoxygenase = Soybean lipoxygenase (Glycine max, UniProt P08170); details: cited from earlier work
[11] = system: human type 1 and 2 5α-reductase isozymes; details: human; cited from earlier work
[12] = molecular target: human type 1 and 2 5α-reductase isozymes (Homo sapiens, UniProt P18405); details: cited from earlier work
[13] = system: plasma 5α-DHT and prostate; details: BPH patients; cited from earlier work
type 1 5α-reductase [14] = molecular target: type 1 5α-reductase (Homo sapiens, UniProt P18405); details: cited from earlier work
[15] = system: Human Prostatic Cancer Cells; test: Cell morphology during 2 hour incubation; type: cell-based
[16] = system: 17β-steroid dehydrogenase; test: 4-Androstenedione formation from [3H]testosterone by PC-3 cells (17β-steroid dehydrogenase); type: cell-based, human
PC-3 = test: 5α-DHT formation from [3H]testosterone by PC-3 cells; type: cell-based, human
hamster flank organ = test: Flank organ, castrated immature male hamsters, topical treatment; type: in vivo, Syrian golden hamster
Procedure: One to two weeks after castration, the hair on the lower back of each animal was clipped with an electric hair clipper and then shaved weekly to expose the flank organs. The animals were divided into 5 animals/treatment group. A treatment solution (5 μl) was applied topically to the right flank organ once a day using a Pipetteman and a polypropylene disposable tip. Unless specified the left flank organ was not treated. The treatment solution contained either (a) ethanol alone (vehicle and control), (b) an androgen (T or 5α-DHT), (c) a fatty acid, or (d) a combination of an androgen and a fatty acid. The flank organ was wiped with an alcohol pad to remove residual compound before each treatment. […] The flank organs, both the treated and untreated sides, were evaluated with methods to be described below to determine the effect of these treatments of the growth of the pigmented macules and the sebaceous glands. The body weight of each animal was recorded before and after treatment.
The data are presented as mean ± standard deviation. […]

[17] = read-out: % Inhibition of 5α-reduction
[18] = read-out: % Inhibition of [^3 H]4-MA binding

Sequence of Soybean lipoxygenase (P08170 whole entry): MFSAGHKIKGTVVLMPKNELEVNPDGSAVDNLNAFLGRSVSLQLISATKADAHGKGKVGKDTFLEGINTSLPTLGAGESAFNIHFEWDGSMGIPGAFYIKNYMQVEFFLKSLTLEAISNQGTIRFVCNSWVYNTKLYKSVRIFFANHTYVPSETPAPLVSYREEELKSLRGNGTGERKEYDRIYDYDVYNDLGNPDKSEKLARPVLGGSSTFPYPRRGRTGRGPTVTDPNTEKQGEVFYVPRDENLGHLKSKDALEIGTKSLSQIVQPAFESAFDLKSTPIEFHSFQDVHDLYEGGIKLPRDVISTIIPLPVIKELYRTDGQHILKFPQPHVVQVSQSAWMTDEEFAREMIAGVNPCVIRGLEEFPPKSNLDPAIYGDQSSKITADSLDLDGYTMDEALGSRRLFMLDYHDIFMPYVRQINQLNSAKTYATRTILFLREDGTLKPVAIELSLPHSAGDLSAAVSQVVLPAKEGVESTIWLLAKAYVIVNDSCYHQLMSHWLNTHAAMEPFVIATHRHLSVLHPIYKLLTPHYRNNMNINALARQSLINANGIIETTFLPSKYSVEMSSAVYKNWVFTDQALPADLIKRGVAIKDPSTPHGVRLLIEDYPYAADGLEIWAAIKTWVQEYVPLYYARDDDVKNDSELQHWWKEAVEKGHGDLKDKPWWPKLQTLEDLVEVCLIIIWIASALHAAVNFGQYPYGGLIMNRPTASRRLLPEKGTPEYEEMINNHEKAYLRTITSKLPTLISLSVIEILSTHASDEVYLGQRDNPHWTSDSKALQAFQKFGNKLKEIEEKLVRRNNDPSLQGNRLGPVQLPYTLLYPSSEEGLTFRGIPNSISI

O=C(OCc1cc(O)c(O)c(O)c1)c1cc(O)c(O)c(O)c1
5α-reductase inhibition (5α-reductase): potent inhibitor of 5α-reductase

CCN(CC)C(=O)[C@H]1CC[C@H]2[C@@H]3CC[C@H]4N(C)C(=O)CC[C@]4(C)[C@H]3CC[C@]12C [4-MA, 17β-N,N-diethylcarbamoyl-4-methyl-4-aza-5α-androstan-3-one]
testosterone inhibition of LH release (rat pituitary cultures): did not affect testosterone inhibition of LH release
prostate size (prostate): the prostate size decreases
effect on prostate growth (5α-reductase / prostate; castrated rats + testosterone): attenuated the growth of the prostate
effect on prostatic 5α-DHT (5α-reductase / prostate; intact or castrated male rats given testosterone propionate): decreasing the prostatic concentration of 5α-DHT
Ki [1]: 0.013 µM
baldness (scalp baldness): prevented the baldness; also recorded: effective in preventing male pattern baldness

O=C(O[C@@H]1Cc2c(O)cc(O)cc2O[C@@H]1c1ccc(O)c(O)c1)c1cc(O)c(O)c(O)c1 [ECG, (-)Epicatechin-3-gallate]
IC50 ([2]; enzymatic assay): ~10 µM
inhibition at 1 µM [2, 17]: 20%
inhibition at 3 µM [2, 17]: 27%
inhibition at 10 µM [2, 17]: 47%
inhibition at 30 µM [2, 17]: 90%
inhibition at 100 µM [2, 17]: 99%
inhibition at 1 µM [3]: 34%
inhibition at 3 µM [3]: 47%
inhibition at 10 µM [3]: 79%
inhibition at 30 µM [3]: 87%
inhibition at 100 µM [3]: 79%
effect on all organs examined ([4]; 10 and 15 mg per day): less than 20%
effect on the body weight ([4]; up to 15 mg per day): No significant effect
activity on type 2 isozyme ([5]; enzymatic assay, concentrations below 30 μM for ECG/EGCG): did not inhibit the Type 2 isozyme
inhibition at 1 µM [5, 17]: < 10%
inhibition at 3 µM [5, 17]: < 10%
inhibition at 10 µM [5, 17]: < 10%
inhibition at 30 µM [5, 17]: < 10%
inhibition at 100 µM [5, 17]: 82%
competition with testosterone or NADPH (type 1 5α-reductase [6]): did not appear to compete with testosterone or NADPH
NADPH oxidation [7]: did not induce NADPH oxidation
effect on the body weights [8]: less than 10%
inhibition at 1 µM [9, 18]: 17%
inhibition at 3 µM [9, 18]: 17%
inhibition at 10 µM [9, 18]: 45%
inhibition at 30 µM [9, 18]: 76%
inhibition at 100 µM [9, 18]: 80%
inhibition at 5 µM [10, 18]: 25%
inhibition at 10 µM [10, 18]: 44%
inhibition at 20 µM [10, 18]: 74%
inhibition at 40 µM [10, 18]: 88%
inhibition at 200 µM [10, 18]: 92%
IC50 ([10]; type 1 5α-reductase of rat liver microsomes, read-out: IC50): 12 µM
IC50 (Soybean lipoxygenase): 18 µM

CC(C)(C)NC(=O)[C@H]1CC[C@H]2[C@@H]3CC[C@H]4NC(=O)C=C[C@]4(C)[C@H]3CC[C@]12C [Finasteride, 17β-N-t-butylcarbamoyl-4-aza-5α-androst-1-en-3-one, reference compound]
inhibition at 0.001 µM [3]: < 10%
inhibition at 0.003 µM [3]: < 10%
inhibition at 0.01 µM [3]: < 10%
inhibition at 0.03 µM [3]: < 10%
inhibition at 0.1 µM [3]: < 10%
sensitivity of type 2 vs type 1 isozyme to inhibition (times) [11]: 30 times
sensitivity of type 1 isozyme [12]: rather insensitive
inhibition of type 2 isozyme expressed in Rat-1A cells [9]: inhibited the type 2 isozyme
inhibition at 0.001 µM [9, 18]: < 10%
inhibition at 0.003 µM [9, 18]: < 10%
inhibition at 0.01 µM [9, 18]: 22%
inhibition at 0.03 µM [9, 18]: 44%
inhibition at 0.1 µM [9, 18]: 67%
plasma 5α-DHT and prostate size [13]: decreases the plasma level of 5α-DHT and the size of the prostate
serum 5α-DHT and hair (scalp baldness; 0.5 mg/day oral, alone or with topical 2% Minoxidil): reduced serum 5α-DHT level
baldness (scalp baldness): effective in preventing male pattern baldness

CN1C(=O)CC[C@@H]2c3ccc(Cl)cc3CC[C@H]21 [LY191704]
type 1 5α-reductase selectivity (type 1 5α-reductase [14]): selective inhibitor of the type 1 5α-reductase

CCCCCCCCCCCCCCCCCC(=O)O [Stearic acid]
visible change in cell morphology [15]: did not produce any visible
4-Androstendione formed (% of control) ([16]; 5 μM): 103 ± 2 % of control
4-Androstendione formed (% of control) ([16]; 20 μM): 106 ± 5 % of control
effect on metabolism of testosterone to 4-androstenedione (17β-steroid dehydrogenase) ([16]; words): did not affect
effect on 5α-reductase reduction (PC-3; 5 to 20 μM, words): did not affect
activity at 5 µM (PC-3; Homo sapiens, PC-3, 5 μM, read-out: 5α-DHT formed (% of control)): 123 ± 2%
activity at 20 µM (PC-3; Homo sapiens, PC-3, 20 μM, read-out: 5α-DHT formed (% of control)): 121 ± 5%
Pigmented Macule, Untreated (L) (hamster flank organ; Table 4, 1 mg fatty acid alone, 18 days): 4.4 ± 0.4 mm^2
Pigmented Macule, Untreated (L) (hamster flank organ; Table 4, 2 mg fatty acid alone, 18 days): 4.6 ± 1.4 mm^2
Pigmented Macule, Untreated (L) (hamster flank organ; Table 4, T 0.5 μg + 1 mg fatty acid): 4.3 ± 0.6 mm^2
Pigmented Macule, Untreated (L) (hamster flank organ; Table 4, T 0.5 μg + 2 mg fatty acid): 4.2 ± 0.4 mm^2
significance vs T alone (hamster flank organ; Table 4, T + 1 mg fatty acid): N.S.
significance vs T alone (hamster flank organ; Table 4, T + 2 mg fatty acid): N.S.
inhibition of T-induced growth of pigmented macule (hamster flank organ; hamster, in vivo): did not inhibit
inhibition at 10 µM ([1]; read-out: % Inhibition of [^3 H]4-MA binding, Table 1, 10 μM): < 10%
inhibition at 40 µM ([1]; read-out: % Inhibition of [^3 H]4-MA binding, Table 1, 40 μM): < 10%
inhibition at 200 µM ([1]; read-out: % Inhibition of [^3 H]4-MA binding, Table 1, 200 μM): < 10%
inhibition at 10 µM ([1]; read-out: % Inhibition of [^3 H]4-MA binding, Table 2, 10 μM): < 10%
inhibition at 40 µM ([1]; read-out: % Inhibition of [^3 H]4-MA binding, Table 2, 40 μM): < 10%
inhibition at 200 µM ([1]; read-out: % Inhibition of [^3 H]4-MA binding, Table 2, 200 μM): < 10%
